Literature values as cited in US8486463B1, “Cosmetic composition comprising aloe vera and caprylyl salicylic acid and method of making” (L'Oreal, priority 2012, dated 2013).

Conditions: based on temperature and purity level

Structure (SMILES): O [water]
- pH: 7
- surface tension: 55.73 dyne/cm
